Legend:
[1] = target: T1, human α5β3γ2L GABAA receptors (Homo sapiens, UniProt P28472+P31644); test: Whole-cell voltage-clamp electrophysiology, HEK-293 cells expressing α5β3γ2L GABAA receptors; type: cell-based; conditions: for GAMSA effect: α5β3γ2L, 1 μM GAMSA, 0.3 μM GABA, AUC
T1 construct: expressed in transfected cells; host or cells: HEK-293, permanently transfected
Method: For electrophysiology measurements the Dynaflow® system with the Resolve chip was used (Cellectricon, Göteborg, Sweden). HEK-293 cells were permanently transfected with vectors including the human CMV promoter for constitutive expression of the human α5, β3, and γ2L GABAA receptor subunits (α5β3γ2L) or the human α1, β2, and γ2L GABAA receptor subunits (α1β2γ2L). The cell lines used were selected for good reactivity to GABA and to THDOC. Before measurements cells were incubated for 15 min at 37° C. in 95% air+5% CO2 in extracellular solution (EC) containing the following: 137 mM NaCl, 5.0 mM KCl, 1.0 mM CaCl2, 1.2 mM MgCl2, 10 mM HEPES, and 10 mM glucose, 0.1% DMSO pH 7.4. Thereafter, detached cells were added to the EC solution in the Dynaflow chip bath.
Whole-cell voltage-clamp recordings were made at room temperature (21-23° C., −17 mV with compensation for liquid junction potential as in Haage et al., 2002; Neher, 1992). Command pulses were generate and data collected by PClamp 9.0 software, DigiData 1322A converter, and AxonPatch 200B (Axon Instruments, Foster City, Calif.). Patch electrodes (2-6 MΩ) were filled with intracellular solution (IC) including: 140 mM Cs-gluconate, 3.0 mM NaCl, 1.2 mM MgCl2, 10 mM HEPES, 1.0 mM EGTA, 2 mM Mg-ATP, 0.1% DMSO, pH 7.2.
THDOC and 3α-ethynyl-3β-hydroxyandrostan-17-one oxime were dissolved in dimethyl sulfoxide (DMSO) and thereafter diluted with EC solution to include 0.1% DMSO.
Different protocols were used for different electrophysiology measurements. As α1β2γ2L-GABAA receptors in vivo are present within the synapse a condition resembling that situation, a short application (40 ms) of a high GABA concentration (30 μM), was used. Contrary, α5β3γ2L-GABAA receptors are present extrasynaptically, thus the conditions used were long exposures (6 s) to a low GABA concentration (0.3 μM). The EC75 concentration of THDOC was used, i.e. 100 nM with studies of α1β2γ2L and 200 nM when α5β3γ2L expressing cells were evaluated. With both cell types a pre-exposure with THDOC or THDOC plus 3α-ethynyl-3β-hydroxyandrostan-17-one oxime was used before application of GABA.
Steroid effects in presence of GABA were normalized to controls in order to avoid the effects of inter- and intracellular variation in the measured parameters, each cell was used as its own control and the area under the curve (AUC) was analyzed.

hyperammonemic rats = test: Beam walking test, hyperammonemic rats (Example 8); type: in vivo, rat
Method: Male Wistar rats (140-160 g) were made hyperammonemic by feeding them a diet containing ammonium acetate (30% by weight) (Felipo et al, European Journal of Biochemistry, 1988, 176, 567-571).
3α-ethynyl-3β-hydroxyandrostan-17-one oxime in sesame oil was administered by subcutaneous injections in the back of the rats, once daily. Two different sets of experiments were performed in hyperammonemic rats. In the first set four groups of rats were used: 1) control rats injected with vehicle; 2) hyperammonemic rats injected with vehicle; 3) control rats injected with 20 mg/Kg of 3α-ethynyl-3β-hydroxyandrostan-17-one oxime and 4) hyperammonemic rats injected with 20 mg/Kg of 3α-ethynyl-3β-hydroxyandrostan-17-one oxime. […]
Motor coordination was tested as described by Gonzalez-Usano et al (ACS Chemical Neuroscience, 2014, 19, 5(2), 100-105) using a wooden beam (20 mm diameter). Rats were made to traverse a one-meter-long wooden beam located approximately one meter above the ground, and the number of foot faults (slips) was recorded by two observers. The rats were trained for the test by being made to traverse the beam up to five times before measurements were recorded. […]

T1 sequence (P31644 32-462): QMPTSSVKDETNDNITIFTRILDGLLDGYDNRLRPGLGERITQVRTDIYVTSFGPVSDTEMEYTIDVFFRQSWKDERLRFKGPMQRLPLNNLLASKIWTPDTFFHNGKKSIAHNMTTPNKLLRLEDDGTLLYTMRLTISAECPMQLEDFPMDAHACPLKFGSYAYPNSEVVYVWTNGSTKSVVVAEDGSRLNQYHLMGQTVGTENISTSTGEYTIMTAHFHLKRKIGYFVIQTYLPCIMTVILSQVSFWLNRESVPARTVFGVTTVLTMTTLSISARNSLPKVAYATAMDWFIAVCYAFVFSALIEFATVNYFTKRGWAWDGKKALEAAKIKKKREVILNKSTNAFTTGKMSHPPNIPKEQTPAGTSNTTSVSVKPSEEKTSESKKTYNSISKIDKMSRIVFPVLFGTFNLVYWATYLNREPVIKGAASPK
T1 sequence (P28472 26-473): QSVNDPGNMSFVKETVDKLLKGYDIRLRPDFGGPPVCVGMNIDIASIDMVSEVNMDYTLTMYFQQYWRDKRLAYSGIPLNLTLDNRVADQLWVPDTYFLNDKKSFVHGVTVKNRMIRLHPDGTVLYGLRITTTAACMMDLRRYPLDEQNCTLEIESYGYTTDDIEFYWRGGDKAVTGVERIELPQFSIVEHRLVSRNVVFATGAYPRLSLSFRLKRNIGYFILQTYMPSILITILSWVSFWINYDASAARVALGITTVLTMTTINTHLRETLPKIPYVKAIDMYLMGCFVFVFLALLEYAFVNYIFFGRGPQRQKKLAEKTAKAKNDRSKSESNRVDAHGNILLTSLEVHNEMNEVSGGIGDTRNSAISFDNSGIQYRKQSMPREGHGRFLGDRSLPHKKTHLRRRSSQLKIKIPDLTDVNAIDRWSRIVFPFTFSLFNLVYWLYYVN
T1 sequence (P18507 40-475 partner): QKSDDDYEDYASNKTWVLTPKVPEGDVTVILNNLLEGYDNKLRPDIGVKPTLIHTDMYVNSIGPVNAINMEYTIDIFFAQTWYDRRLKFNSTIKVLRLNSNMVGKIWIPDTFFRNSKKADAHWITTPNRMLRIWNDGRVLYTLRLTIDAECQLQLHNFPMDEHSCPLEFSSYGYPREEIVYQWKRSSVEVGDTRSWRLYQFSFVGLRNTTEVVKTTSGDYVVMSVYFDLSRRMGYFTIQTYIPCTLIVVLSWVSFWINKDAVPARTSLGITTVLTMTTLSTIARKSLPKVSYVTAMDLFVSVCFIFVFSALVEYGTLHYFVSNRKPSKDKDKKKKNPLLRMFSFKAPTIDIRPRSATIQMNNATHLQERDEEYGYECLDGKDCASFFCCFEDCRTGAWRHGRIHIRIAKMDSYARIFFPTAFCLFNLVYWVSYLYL

**Q.** `C#C[C@]1(O)CC[C@@]2(C)C(CC[C@@H]3[C@@H]2CC[C@]2(C)/C(=N\O)CC[C@@H]32)C1` (stereo partly drawn) [3α-ethynyl-3β-hydroxyandrostan-17-one oxime] was tested. Which inhibition at 1 µM ([1]; HEK293, read-out: Inhibition of the THDOC enhancement of GABA) did it give?
**A.** 49 ± 4.7%

**Q.** And the GAMSA effect ([1]; 200 nM THDOC)?
**A.** −49 ± 4.7%

**Q.** What about the GAMSA effect ([1]; no THDOC (GABA sole activator)) of the same compound?
**A.** −3.8±1.5%

**Q.** What about the GAMSA effect ([1]; no THDOC (GABA sole activator), listed as GAMSA) of the same compound?
**A.** −3.8 ± 1.5%

**Q.** What about the “Number of slips, beam walking test” value (hyperammonemic rats; 3 mg/kg s.c. once daily) of the same compound?
**A.** 0.8±0.1 slips

**Q.** And the “Number of slips, beam walking test” value (hyperammonemic rats; 20 mg/kg s.c. once daily)?
**A.** 0.78±0.07 slips
